In US11324728B2, “Dosing regimens for the treatment of fungal infections” (Seren Pharmaceuticals Inc., priority 2017, dated 2022):

System: onychomycosis of the toenail
Test: Phase II clinical study: changes over time in efficacy of the target nail (turbidity area ratio, clinical cure, relapse/reinfection)
Assay type: in vivo, human
Details: for Clinical cure (no visual sign of infection) / Clinical cure rate and 95% CI / Remaining of the visual sign of infection: target nail; for Clinical cure (no visual sign of infection) / Clinical cure rate and 95% CI / Remaining of the visual sign of infection / turbidity area ratio regarding the target nail, Mean / turbidity area ratio regarding the target nail, Median: PPS
Method: A Phase II clinical pharmacology study was conducted in subjects with onychomycosis of the toenail. The study investigated the pharmacokinetics, efficacy and safety of three different dosing regimens of fosravuconazole. […] The three treatment groups were as follows: • a.
The efficacy endpoints were: (1) overall clinical efficacy; (2) changes over time in efficacy; (3) confirmation of elements of dermatophytes by direct microscopy; and (4) results of identification of dermatophytes by the polymerase chain reaction (PCR) method.

C[C@@H](c1nc(-c2ccc(C#N)cc2)cs1)[C@@](Cn1cncn1)(OCOP(=O)(O)O)c1ccc(F)cc1F [fosravuconazole, 4-[2-[(1R,2R)-2-(2,4-difluorophenyl)-1-methyl-2-[(phosphonooxy)methoxy]-3-(1H-1,2,4-triazol-1-yl)propyl]-4-thiazolyl]benzo-nitrile]
relapse/reinfection (100 mg (once daily dose) group): no subject
Clinical cure (no visual sign of infection) (100 mg group, Week 48): 11
Clinical cure rate and 95% CI (100 mg group, Week 48): 44.0 (24.5, 65.0) %
Remaining of the visual sign of infection (100 mg group, Week 48): 14
turbidity area ratio regarding the target nail, Mean (100 mg, Start day of treatment): 76.9%
turbidity area ratio regarding the target nail, Median (100 mg, Start day of treatment): 75.5%
turbidity area ratio regarding the target nail, Mean (100 mg, Week 4): 72.9%
turbidity area ratio regarding the target nail, Median (100 mg, Week 4): 72.0%
turbidity area ratio regarding the target nail, Mean (100 mg, Week 8): 65.9%
turbidity area ratio regarding the target nail, Median (100 mg, Week 8): 67.0%
turbidity area ratio regarding the target nail, Mean (100 mg, Week 12): 55.6%
turbidity area ratio regarding the target nail, Median (100 mg, Week 12): 56.0%
turbidity area ratio regarding the target nail, Mean (100 mg, Week 16): 44.2%
turbidity area ratio regarding the target nail, Median (100 mg, Week 16): 46.0%
turbidity area ratio regarding the target nail, Mean (100 mg, Week 20): 34.6%
turbidity area ratio regarding the target nail, Median (100 mg, Week 20): 36.0%
turbidity area ratio regarding the target nail, Mean (100 mg, Week 24): 26.5%
turbidity area ratio regarding the target nail, Median (100 mg, Week 24): 25.0%
turbidity area ratio regarding the target nail, Mean (100 mg, Week 28): 19.4%
turbidity area ratio regarding the target nail, Median (100 mg, Week 28): 18.0%
turbidity area ratio regarding the target nail, Mean (100 mg, Week 32): 14.4%
turbidity area ratio regarding the target nail, Median (100 mg, Week 32): 15.0%
turbidity area ratio regarding the target nail, Mean (100 mg, Week 36): 12.0%
turbidity area ratio regarding the target nail, Median (100 mg, Week 36): 9.0%
turbidity area ratio regarding the target nail, Mean (100 mg, Week 40): 9.6%
turbidity area ratio regarding the target nail, Median (100 mg, Week 40): 12.0%
turbidity area ratio regarding the target nail, Mean (100 mg, Week 44): 8.6%
turbidity area ratio regarding the target nail, Median (100 mg, Week 44): 8.0%
turbidity area ratio regarding the target nail, Mean (100 mg, Week 48): 9.3%
turbidity area ratio regarding the target nail, Median (100 mg, Week 48): 6.0%
relapse/reinfection (200 mg (pulse treatment) group): 4 subjects
Clinical cure (no visual sign of infection) (200 mg group, Week 48): 7
Clinical cure rate and 95% CI (200 mg group, Week 48): 31.8 (13.9, 54.8) %
Remaining of the visual sign of infection (200 mg group, Week 48): 15
turbidity area ratio regarding the target nail, Mean (200 mg, Start day of treatment): 76.4%
turbidity area ratio regarding the target nail, Median (200 mg, Start day of treatment): 74.0%
turbidity area ratio regarding the target nail, Mean (200 mg, Week 4): 69.6%
turbidity area ratio regarding the target nail, Median (200 mg, Week 4): 70.0%
turbidity area ratio regarding the target nail, Mean (200 mg, Week 8): 59.8%
turbidity area ratio regarding the target nail, Median (200 mg, Week 8): 58.5%
turbidity area ratio regarding the target nail, Mean (200 mg, Week 12): 51.4%
turbidity area ratio regarding the target nail, Median (200 mg, Week 12): 49.0%
turbidity area ratio regarding the target nail, Mean (200 mg, Week 16): 45.0%
turbidity area ratio regarding the target nail, Median (200 mg, Week 16): 45.0%
turbidity area ratio regarding the target nail, Mean (200 mg, Week 20): 35.8%
turbidity area ratio regarding the target nail, Median (200 mg, Week 20): 34.0%
turbidity area ratio regarding the target nail, Mean (200 mg, Week 24): 27.9%
turbidity area ratio regarding the target nail, Median (200 mg, Week 24): 25.0%
turbidity area ratio regarding the target nail, Mean (200 mg, Week 28): 23.3%
turbidity area ratio regarding the target nail, Median (200 mg, Week 28): 18.0%
turbidity area ratio regarding the target nail, Mean (200 mg, Week 32): 20.0%
turbidity area ratio regarding the target nail, Median (200 mg, Week 32): 9.0%
turbidity area ratio regarding the target nail, Mean (200 mg, Week 36): 18.2%
turbidity area ratio regarding the target nail, Median (200 mg, Week 36): 11.5%
turbidity area ratio regarding the target nail, Mean (200 mg, Week 40): 16.0%
turbidity area ratio regarding the target nail, Median (200 mg, Week 40): 10.0%
turbidity area ratio regarding the target nail, Mean (200 mg, Week 44): 13.5%
turbidity area ratio regarding the target nail, Median (200 mg, Week 44): 5.0%
turbidity area ratio regarding the target nail, Mean (200 mg, Week 48): 14.6%
turbidity area ratio regarding the target nail, Median (200 mg, Week 48): 9.0%
Clinical cure (no visual sign of infection) (300 mg group, Week 48): 11
Clinical cure rate and 95% CI (300 mg group, Week 48): 40.7 (22.4, 61.2) %
Remaining of the visual sign of infection (300 mg group, Week 48): 16
relapse/reinfection (400 mg group): 1 subject
turbidity area ratio regarding the target nail, Mean (400 mg, Start day of treatment): 74.4%
turbidity area ratio regarding the target nail, Median (400 mg, Start day of treatment): 76.0%
turbidity area ratio regarding the target nail, Mean (400 mg, Week 4): 66.9%
turbidity area ratio regarding the target nail, Median (400 mg, Week 4): 67.0%
turbidity area ratio regarding the target nail, Mean (400 mg, Week 8): 57.4%
turbidity area ratio regarding the target nail, Median (400 mg, Week 8): 59.0%
turbidity area ratio regarding the target nail, Mean (400 mg, Week 12): 49.3%
turbidity area ratio regarding the target nail, Median (400 mg, Week 12): 52.0%
turbidity area ratio regarding the target nail, Mean (400 mg, Week 16): 40.6%
turbidity area ratio regarding the target nail, Median (400 mg, Week 16): 41.0%
turbidity area ratio regarding the target nail, Mean (400 mg, Week 20): 31.1%
turbidity area ratio regarding the target nail, Median (400 mg, Week 20): 29.0%
turbidity area ratio regarding the target nail, Mean (400 mg, Week 24): 25.7%
turbidity area ratio regarding the target nail, Median (400 mg, Week 24): 20.0%
turbidity area ratio regarding the target nail, Mean (400 mg, Week 28): 18.3%
turbidity area ratio regarding the target nail, Median (400 mg, Week 28): 16.0%
turbidity area ratio regarding the target nail, Mean (400 mg, Week 32): 14.9%
turbidity area ratio regarding the target nail, Median (400 mg, Week 32): 12.0%
turbidity area ratio regarding the target nail, Mean (400 mg, Week 36): 13.5%
turbidity area ratio regarding the target nail, Median (400 mg, Week 36): 9.0%
turbidity area ratio regarding the target nail, Mean (400 mg, Week 40): 11.8%
turbidity area ratio regarding the target nail, Median (400 mg, Week 40): 6.0%
turbidity area ratio regarding the target nail, Mean (400 mg, Week 44): 11.9%
turbidity area ratio regarding the target nail, Median (400 mg, Week 44): 6.0%
turbidity area ratio regarding the target nail, Mean (400 mg, Week 48): 12.7%
turbidity area ratio regarding the target nail, Median (400 mg, Week 48): 8.0%
